The values that follow come from patent US20250332392A1, “APPARATUSES AND METHODS FOR TREATMENT OF FEMALE URINARY INCONTINENCE” (THE BOARD OF REGENTS OF THE UNIVERSITY OF TEXAS SYSTEM, priority 2022, published 2025).

Data set [1] concerns urinary incontinence (UI) episodes. In words: clinical trial of oral sildenafil in women: UI episodes and side effects. It is filed as in vivo. An excerpt: In view of this, the inventors determined to develop a way to administer sildenafil directly to the muscles and structures of the pelvic floor using an intravaginal apparatus. Disclosed in the discussion that follows are example embodiments of intravaginal apparatuses that can be used for treating urinary incontinence.

Data set [2] can be described thus: clinical trial pharmacokinetics: plasma and cervicovaginal (CVF) secretion drug concentrations after oral sildenafil. Format: in vivo. The settings on record: women, oral 20 mg 3 times a day for a month.
Method: A series of pharmacokinetic and safety studies were conducted in both women and sheep.

Consider `CCCc1nn(C)c2c(=O)[nH]c(-c3cc(S(=O)(=O)N4CCN(C)CC4)ccc3OCC)nc12` [sildenafil], for which the side effects result in data set [1] (women taking oral sildenafil) is “flushing, visual changes, and gastrointestinal changes”. In addition, in data set [1] (women taking oral sildenafil (20 mg 3 times a day for a month)), the “number of UI episodes per day” value is “decrease”. The “dependence of CVF secretion drug concentrations on plasma drug concentrations” value in data set [2] is “not dependent on the plasma drug concentrations”. For the same compound, the “CVF secretion drug concentrations compared with plasma drug concentrations” value in data set [2] (later timepoints after the last oral dose) is given as “higher than the plasma drug concentrations”.
